Reference: patent publication US20050026933A1, “Use of a combination of an epidermal growth factor receptor kinase inhibitor and cytotoxic agents for treatment and inhibition of cancer” (Wyeth Holdings Corporation, priority 2003, published 2005)

Experiments:
[1] = tested on: LoVo colon carcinoma cells; experiment: LoVo colon carcinoma xenograft in athymic nu/nu mice; type: in vivo, mouse xenograft of human tumor cells; details: 5-FU study LoVo, EKB-569 20 mg/kg PO days 1-20, 5-FU 40 mg/kg IP days 1, 5, 9, 13
Experimental: (§1) In all of the experiments, athymic nu/nu female mice (Charles River Laboratories) were injected SC (subcutaneously) with either 7×10^6 or 1×10^7 LoVo colon carcinoma cells or 5×10^6 GEO colon carcinoma cells. When tumors attained a mass of between 80 and 120 mg (Day 0), animals were randomized into treatment groups each containing between 5 and 20 animals, (dependent upon the experiment). Mice were treated orally (PO) with EKB-569 or vehicle control for 15 to 20 days, depending upon the experiment. EKB-569 was formulated in 0.5% Methocel, 0.4% Tween 80. Cytotoxic agents, (paclitaxel, 5-FU and cisplatin), were given either by […] (IP) or intravenous (IV) administration on either days 1, 5 and 9 or on days 1, 5, 9 and 13, depending upon the experiment. Tumor mass ([Length×Width^2]/2) was determined every seven days post staging for up to 35 days. The relative tumor growth, (Mean tumor mass on day measured divided by the mean tumor mass on day zero), and the percent Tumor/Control, (% T/C), was then calculated for each treatment group for as long as the control group remained. The % T/C is defined as the Mean Relative Tumor Growth of the Treated Group divided by the Mean Relative Tumor Growth of Vehicle Control Group multiplied by 100. The data was analyzed via Student's one-tailed t-test. A p-value≦0.05 indicates a statistically significant reduction in relative tumor growth of treated group compared with the vehicle control group or drug treated group.
The activity of EKB-569 in combination with paclitaxel was assessed using the human colon carcinoma lines LoVo and GEO. In the LoVo experiment, 20 mg/kg EKB-569 was administered PO for 20 consecutive days. Twenty mg/kg paclitaxel prepared in 2% cremophor el and 2% ethanol was administered IV on days 1, 5, 9 and 13.
(§2) The activity of EKB-569 in combination with 5-FU was assessed in LoVo and GEO xenografts. In the LoVo experiment, 20 mg/kg EKB-569 was administered for 20 consecutive days while 40 mg/kg 5-FU was administered IP on days 1, 5, 9 and 13. In the GEO experiment, 80 mg/kg EKB-569 was administered PO for 15 consecutive days while 40 mg/kg 5-FU was administered IP on days 1, 5, 9 and 13. […] At all time points, tumor size was smaller in the combination group compared with the single agent groups in these experiments.
The activity of EKB-569 in combination with cisplatin was assessed in LoVo and GEO xenografts. In the LoVo study, 20 mg/kg EKB-569 was administered PO for 20 consecutive days while 3 mg/kg cisplatin was administered IP on days 1, 5 and 9. In the GEO experiment, 80 mg/kg EKB-569 was administered PO for 15 consecutive days while 3 mg/kg cisplatin was administered I P on days 1, 5, 9 and 13. In both these experiments, combination therapy gave statistically significant, (p≦0.05), tumor growth inhibition than either drug alone at 3 out of 4 time points examined.

[2] = tested on: GEO colon carcinoma cells; experiment: GEO colon carcinoma xenograft in athymic nu/nu mice; type: in vivo, human; details: for RTG (Relative Tumor Growth): EKB-569 80 mg/kg PO, paclitaxel 25 mg/kg IV
Experimental: as §1
In the experiment of Table 1 (GEO), 80 mg/kg EKB-569 was administered PO for 15 consecutive days while 25 mg/kg paclitaxel was administered IV on days 1, 5, 9 and 13 (Table 1). The results obtained in this study were identical to that in the LoVo study except that there was up to 85% tumor growth inhibition seen in the group receiving combination therapy.
as §2, with “experiments. […]” for “experiments.”

[3] = 5-FU study GEO, Day 8, EKB-569 80 mg/kg PO days 1-15, 5-FU 40 mg/kg IP days 1, 5, 9, 13
[4] = 5-FU study GEO, Day 14, EKB-569 80 mg/kg PO days 1-15, 5-FU 40 mg/kg IP days 1, 5, 9, 13
[5] = 5-FU study GEO, Day 21, EKB-569 80 mg/kg PO days 1-15, 5-FU 40 mg/kg IP days 1, 5, 9, 13
[6] = 5-FU study GEO, Day 28, EKB-569 80 mg/kg PO days 1-15, 5-FU 40 mg/kg IP days 1, 5, 9, 13
[7] = paclitaxel study, Day 6, EKB-569 80 mg/kg PO days 1-15, paclitaxel 25 mg/kg IV days 1, 5, 9, 13
[8] = paclitaxel study, Day 15, EKB-569 80 mg/kg PO days 1-15, paclitaxel 25 mg/kg IV days 1, 5, 9, 13

O=c1[nH]cc(F)c(=O)[nH]1 [5-FU, 5-Fluorouracil]
% T/C ([1]; Day 7): 59% | % T/C ([1]; Day 14): 63% | % T/C ([1]; Day 21): 85% | % T/C ([1]; Day 29): 77% | % T/C [2, 3]: 58% | % T/C [2, 4]: 47% | % T/C [2, 5]: 50% | % T/C [2, 6]: 60%

CCOc1cc2ncc(C#N)c(Nc3ccc(F)c(Cl)c3)c2cc1NC(=O)C=CCN(C)C [EKB-569, 4-dimethylamino-but-2-enoic acid [4-(3-chloro-4-fluoro-phenylamino)-3-cyano-7-ethoxy-quinolin-6-yl]-amide]
% T/C ([1]; Day 7): 84% | % T/C ([1]; Day 14): 67% | % T/C ([1]; Day 21): 77% | % T/C ([1]; Day 29): 95% | % T/C [2, 3]: 55% | % T/C [2, 4]: 54% | % T/C [2, 5]: 81% | % T/C [2, 6]: 95% | % T/C [2, 7]: 51% | RTG (Relative Tumor Growth) ([2]; paclitaxel study, Day 6): 1.78 | % T/C [2, 8]: 53% | RTG (Relative Tumor Growth) ([2]; paclitaxel study, Day 15): 3.33 | RTG (Relative Tumor Growth) ([2]; paclitaxel study, Day 21): 5.19 | RTG (Relative Tumor Growth) ([2]; paclitaxel study, Day 28): 5.78

CC(=O)O[C@H]1C(=O)[C@@]2(C)[C@H]([C@H](OC(=O)c3ccccc3)[C@]3(O)C[C@H](OC(=O)[C@H](O)[C@@H](NC(=O)c4ccccc4)c4ccccc4)C(C)=C1C3(C)C)[C@]1(OC(C)=O)CO[C@@H]1C[C@@H]2O [Paclitaxel, paclitaxel]
% T/C [2, 7]: 46% | RTG (Relative Tumor Growth) ([2]; paclitaxel study, Day 6): 1.63 | % T/C [2, 8]: 43% | RTG (Relative Tumor Growth) ([2]; paclitaxel study, Day 15): 2.69 | RTG (Relative Tumor Growth) ([2]; paclitaxel study, Day 21): 2.24 | RTG (Relative Tumor Growth) ([2]; paclitaxel study, Day 28): 2.70
